Experimental data: US10168342B2, “Lipid probes and uses thereof” (THE SCRIPPS RESEARCH INSTITUTE, priority 2015, dated 2019)
Like-named read-outs stand apart in the source and are kept apart here.

How the values were obtained:
[1] = target: T1, AEA-DA lipid probe targets in Neuro2a cells (Mus musculus, UniProt P52875)
T1 sequence (P52875 34-323): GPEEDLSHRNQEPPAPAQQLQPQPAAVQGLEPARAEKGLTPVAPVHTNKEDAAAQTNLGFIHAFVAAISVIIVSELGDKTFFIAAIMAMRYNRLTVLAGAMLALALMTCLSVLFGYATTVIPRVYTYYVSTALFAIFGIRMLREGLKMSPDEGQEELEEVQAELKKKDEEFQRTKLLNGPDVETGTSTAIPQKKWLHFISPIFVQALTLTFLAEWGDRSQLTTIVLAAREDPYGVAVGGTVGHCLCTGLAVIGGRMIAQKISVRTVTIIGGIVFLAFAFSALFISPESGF

[2] = target: T2, AEA-DA lipid probe targets in Neuro2a cells (Mus musculus, UniProt Q61207); settings: for SILAC ratio, PSAP (P07602): Neuro2a cells, AEA-DA probe
T2 sequence (Q61207 60-557): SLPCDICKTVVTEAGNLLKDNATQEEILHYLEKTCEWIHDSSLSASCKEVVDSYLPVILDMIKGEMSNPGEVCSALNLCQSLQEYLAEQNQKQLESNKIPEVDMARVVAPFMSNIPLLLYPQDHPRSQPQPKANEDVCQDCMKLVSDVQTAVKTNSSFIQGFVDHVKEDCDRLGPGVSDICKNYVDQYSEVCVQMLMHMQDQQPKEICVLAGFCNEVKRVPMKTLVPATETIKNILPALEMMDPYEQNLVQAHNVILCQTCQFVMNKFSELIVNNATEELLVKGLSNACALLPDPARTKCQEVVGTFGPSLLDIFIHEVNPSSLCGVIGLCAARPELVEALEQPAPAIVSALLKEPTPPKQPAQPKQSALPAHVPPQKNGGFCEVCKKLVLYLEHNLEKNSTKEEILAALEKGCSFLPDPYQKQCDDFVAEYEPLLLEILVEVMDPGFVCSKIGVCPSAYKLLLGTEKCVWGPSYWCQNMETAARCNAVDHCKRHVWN

[3] = target: T3, AEA-DA lipid probe targets in Neuro2a cells (Mus musculus, UniProt Q9DBH5)
T3 sequence (Q9DBH5 47-358): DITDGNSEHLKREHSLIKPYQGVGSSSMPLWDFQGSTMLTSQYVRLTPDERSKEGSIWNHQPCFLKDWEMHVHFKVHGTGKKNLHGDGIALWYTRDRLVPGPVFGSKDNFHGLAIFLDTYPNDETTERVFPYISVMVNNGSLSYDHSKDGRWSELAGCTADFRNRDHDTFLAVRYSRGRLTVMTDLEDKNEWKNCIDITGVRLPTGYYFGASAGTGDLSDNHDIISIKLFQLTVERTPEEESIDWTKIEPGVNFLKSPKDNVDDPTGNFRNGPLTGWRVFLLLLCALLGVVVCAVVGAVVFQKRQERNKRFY

[4] = target: AEA-DA lipid probe targets in Neuro2a cells (Mus musculus, UniProt Q9D880)
Chain of AEA-DA lipid probe targets in Neuro2a cells (Mus musculus, UniProt Q9D880) (Q9D880 22-353): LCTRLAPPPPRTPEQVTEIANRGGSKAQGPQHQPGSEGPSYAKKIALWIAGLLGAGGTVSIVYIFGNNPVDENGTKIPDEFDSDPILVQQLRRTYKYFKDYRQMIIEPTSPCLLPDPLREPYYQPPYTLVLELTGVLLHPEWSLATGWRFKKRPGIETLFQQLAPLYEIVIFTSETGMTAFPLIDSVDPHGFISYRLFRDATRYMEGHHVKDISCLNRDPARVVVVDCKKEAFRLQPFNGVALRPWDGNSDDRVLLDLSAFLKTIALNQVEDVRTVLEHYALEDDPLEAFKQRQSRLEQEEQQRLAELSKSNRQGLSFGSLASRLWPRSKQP

[5] = target: T4, AEA-DA lipid probe targets in Neuro2a cells (Mus musculus, UniProt Q8VHE0)
T4 sequence (Q8VHE0 1-760): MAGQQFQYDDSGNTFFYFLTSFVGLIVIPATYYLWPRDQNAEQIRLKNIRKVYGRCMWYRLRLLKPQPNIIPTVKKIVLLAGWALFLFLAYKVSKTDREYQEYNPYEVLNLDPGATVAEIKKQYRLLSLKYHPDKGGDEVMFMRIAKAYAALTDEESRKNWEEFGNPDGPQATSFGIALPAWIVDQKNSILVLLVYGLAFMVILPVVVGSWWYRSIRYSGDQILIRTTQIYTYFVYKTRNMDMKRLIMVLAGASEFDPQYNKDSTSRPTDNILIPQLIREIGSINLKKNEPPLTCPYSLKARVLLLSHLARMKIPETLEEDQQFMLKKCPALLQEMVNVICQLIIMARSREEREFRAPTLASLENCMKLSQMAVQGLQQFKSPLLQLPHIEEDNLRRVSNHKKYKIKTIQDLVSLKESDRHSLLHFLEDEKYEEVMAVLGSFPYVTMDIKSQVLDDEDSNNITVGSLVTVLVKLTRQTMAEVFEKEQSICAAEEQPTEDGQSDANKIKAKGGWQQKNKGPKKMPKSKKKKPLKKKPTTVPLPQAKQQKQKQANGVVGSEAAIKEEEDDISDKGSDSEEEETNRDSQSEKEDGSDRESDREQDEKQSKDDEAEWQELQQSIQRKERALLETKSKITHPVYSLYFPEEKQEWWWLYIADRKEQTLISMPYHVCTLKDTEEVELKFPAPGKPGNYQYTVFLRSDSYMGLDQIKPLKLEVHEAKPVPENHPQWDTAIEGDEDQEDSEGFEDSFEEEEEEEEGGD

[6] = target: T5, AEA-DA lipid probe targets in Neuro2a cells (Mus musculus, UniProt P09103)
T5 sequence (P09103 20-509): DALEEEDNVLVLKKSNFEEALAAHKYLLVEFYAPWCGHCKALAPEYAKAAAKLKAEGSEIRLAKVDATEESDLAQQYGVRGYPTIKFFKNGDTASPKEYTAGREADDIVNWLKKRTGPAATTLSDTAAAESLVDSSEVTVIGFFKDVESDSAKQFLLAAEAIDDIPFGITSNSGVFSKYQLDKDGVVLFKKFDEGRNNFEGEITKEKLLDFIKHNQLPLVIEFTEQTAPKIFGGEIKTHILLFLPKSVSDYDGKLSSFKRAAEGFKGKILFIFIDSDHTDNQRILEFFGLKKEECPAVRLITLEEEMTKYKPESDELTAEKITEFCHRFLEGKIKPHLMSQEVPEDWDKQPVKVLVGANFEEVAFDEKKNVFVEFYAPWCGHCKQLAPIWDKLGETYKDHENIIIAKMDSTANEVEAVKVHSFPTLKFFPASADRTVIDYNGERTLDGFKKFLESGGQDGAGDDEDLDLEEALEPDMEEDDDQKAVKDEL

[7] = target: AEA-DA lipid probe targets in Neuro2a cells (Mus musculus, UniProt Q60864)
[8] = target: AEA-DA lipid probe targets in Neuro2a cells (Mus musculus, UniProt Q8BMS1)
Chain of AEA-DA lipid probe targets in Neuro2a cells (Mus musculus, UniProt Q8BMS1) (Q8BMS1 37-763): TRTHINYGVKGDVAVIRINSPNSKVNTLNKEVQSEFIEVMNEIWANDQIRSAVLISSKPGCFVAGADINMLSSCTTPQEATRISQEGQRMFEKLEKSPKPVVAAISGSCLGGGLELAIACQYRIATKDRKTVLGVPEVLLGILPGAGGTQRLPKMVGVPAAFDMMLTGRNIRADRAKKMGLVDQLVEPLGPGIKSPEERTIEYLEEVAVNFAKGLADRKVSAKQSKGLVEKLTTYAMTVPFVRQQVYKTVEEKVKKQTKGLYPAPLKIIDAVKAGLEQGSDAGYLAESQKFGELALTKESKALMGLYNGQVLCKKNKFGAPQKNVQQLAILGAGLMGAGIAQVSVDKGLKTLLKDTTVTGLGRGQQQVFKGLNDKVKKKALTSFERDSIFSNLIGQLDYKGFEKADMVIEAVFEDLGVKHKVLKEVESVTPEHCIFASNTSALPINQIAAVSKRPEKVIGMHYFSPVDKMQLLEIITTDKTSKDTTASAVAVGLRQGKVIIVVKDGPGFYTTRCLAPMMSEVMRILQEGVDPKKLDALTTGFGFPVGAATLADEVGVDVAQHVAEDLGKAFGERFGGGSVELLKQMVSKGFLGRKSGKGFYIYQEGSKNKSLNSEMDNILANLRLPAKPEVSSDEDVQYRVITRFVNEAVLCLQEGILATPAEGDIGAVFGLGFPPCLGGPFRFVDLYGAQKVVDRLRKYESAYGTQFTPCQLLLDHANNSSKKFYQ

[9] = target: AEA-DA lipid probe targets in Neuro2a cells (Mus musculus, UniProt Q8VDL4)
Chain of AEA-DA lipid probe targets in Neuro2a cells (Mus musculus, UniProt Q8VDL4) (Q8VDL4 23-496): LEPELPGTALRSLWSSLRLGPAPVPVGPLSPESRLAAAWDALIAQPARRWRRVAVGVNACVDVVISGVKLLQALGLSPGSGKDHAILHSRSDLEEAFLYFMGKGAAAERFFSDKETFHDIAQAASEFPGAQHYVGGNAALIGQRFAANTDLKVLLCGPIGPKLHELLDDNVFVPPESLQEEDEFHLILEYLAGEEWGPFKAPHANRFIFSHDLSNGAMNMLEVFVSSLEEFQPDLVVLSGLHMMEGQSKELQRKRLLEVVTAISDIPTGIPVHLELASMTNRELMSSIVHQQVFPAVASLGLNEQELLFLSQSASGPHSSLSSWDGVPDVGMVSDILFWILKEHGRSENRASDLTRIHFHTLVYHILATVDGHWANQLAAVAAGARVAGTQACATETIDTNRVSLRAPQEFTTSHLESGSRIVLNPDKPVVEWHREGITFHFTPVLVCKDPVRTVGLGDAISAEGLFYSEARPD

## C=CCN(C)CCCCCCOc1ccc(C(=O)c2ccc(Br)cc2)c(F)c1 [Ro 48-8071, reference compound]
[1]; competitor 25 μM
  SILAC ratio, Tmem165: 1.1
[2]; competitor 25 μM
  SILAC ratio, PSAP (P07602): 1.0
  SILAC ratio Psap: 1.0
[3]; competitor 25 μM
  SILAC ratio Lman2: 0.7
[4]; competitor 25 μM
  SILAC ratio Timm50: 0.9
[5]; competitor 25 μM
  SILAC ratio Sec63: 1.0
[6]; competitor 25 μM
  SILAC ratio P4hb: 1.0
[7]; competitor 25 μM
  SILAC ratio Stip1: 1.0
[8]; competitor 25 μM
  SILAC ratio, Hadha: 1.0
[9]; competitor 25 μM
  SILAC ratio, Adpgk: 1.2

## CN1CCN(C(=O)c2[nH]c3ccc([N+](=O)[O-])cc3c2-c2ccccc2)CC1 [MJN228, (4-Methylpiperazin-1-yl)(5-nitro-3-phenyl-1H-indol-2-yl)methanone]
[1]; competitor 10 μM
  SILAC ratio, Tmem165: 1.0
[1]; competitor 25 μM
  SILAC ratio, Tmem165: 1.2
[1]; competitor 100 μM
  SILAC ratio, Tmem165: 1.5
[2]; competitor 25 μM
  SILAC ratio, PSAP (P07602): 1.4
  SILAC ratio Psap: 1.4
[2]; competitor 10 μM
  SILAC ratio Psap: 1.1
[2]; competitor 50 μM
  SILAC ratio Psap: 1.4
[2]; competitor 100 μM
  SILAC ratio Psap: 1.6
[3]; competitor 10 μM
  SILAC ratio Lman2: 1.2
[3]; competitor 25 μM
  SILAC ratio Lman2: 1.1
[3]; competitor 50 μM
  SILAC ratio Lman2: 2.1
[3]; competitor 100 μM
  SILAC ratio Lman2: 1.5
[4]; competitor 10 μM
  SILAC ratio Timm50: 1.2
[4]; competitor 25 μM
  SILAC ratio Timm50: 1.3
[4]; competitor 50 μM
  SILAC ratio Timm50: 1.1
[4]; competitor 100 μM
  SILAC ratio Timm50: 1.2
[5]; competitor 10 μM
  SILAC ratio Sec63: 1.4
[5]; competitor 25 μM
  SILAC ratio Sec63: 1.5
[5]; competitor 50 μM
  SILAC ratio Sec63: 1.8
[5]; competitor 100 μM
  SILAC ratio Sec63: 1.8
[6]; competitor 10 μM
  SILAC ratio P4hb: 1.3
[6]; competitor 25 μM
  SILAC ratio P4hb: 1.5
[6]; competitor 50 μM
  SILAC ratio P4hb: 2.0
[6]; competitor 100 μM
  SILAC ratio P4hb: 2.2
[7]; competitor 10 μM
  SILAC ratio Stip1: 1.2
[7]; competitor 25 μM
  SILAC ratio Stip1: 1.3
[7]; competitor 50 μM
  SILAC ratio Stip1: 1.2
[7]; competitor 100 μM
  SILAC ratio Stip1: 1.9
[8]; competitor 10 μM
  SILAC ratio, Hadha: 1.4
[8]; competitor 25 μM
  SILAC ratio, Hadha: 1.7
[8]; competitor 50 μM
  SILAC ratio, Hadha: 2.0
[8]; competitor 100 μM
  SILAC ratio, Hadha: 2.9
[9]; competitor 10 μM
  SILAC ratio, Adpgk: 1.4
[9]; competitor 25 μM
  SILAC ratio, Adpgk: 1.7
[9]; competitor 50 μM
  SILAC ratio, Adpgk: 1.5
[9]; competitor 100 μM
  SILAC ratio, Adpgk: 2.0

## CCCCC/C=C\C/C=C\C/C=C\C/C=C\CCCC(=O)NCCO [AEA, anandamide, reference compound]
[1]; competitor 200 μM
  SILAC ratio, Tmem165: 1.5
[2]; competitor 200 μM
  SILAC ratio, PSAP (P07602): 1.4
  SILAC ratio Psap: 1.4
[3]; competitor 200 μM
  SILAC ratio Lman2: 1.5
[4]; competitor 200 μM
  SILAC ratio Timm50: 1.2
[5]; competitor 200 μM
  SILAC ratio Sec63: 1.5
[6]; competitor 200 μM
  SILAC ratio P4hb: 1.2
[7]; competitor 200 μM
  SILAC ratio Stip1: 1.3
[8]; competitor 200 μM
  SILAC ratio, Hadha: 2.3
[9]; competitor 200 μM
  SILAC ratio, Adpgk: 1.8

## CN1CCN(C(=O)c2c(-c3ccccc3)c3cc([N+](=O)[O-])ccc3n2C)CC1 [KML110, (1-Methyl-5-nitro-3-phenyl-1H-indol-2-yl)(4-methylpiperazin-1-yl)methanone]
[1]; competitor 25 μM
  SILAC ratio, Tmem165: 1.5
[2]; competitor 25 μM
  SILAC ratio Psap: 1.3
[3]; competitor 25 μM
  SILAC ratio Lman2: 1.3
[4]; competitor 25 μM
  SILAC ratio Timm50: 1.1
[5]; competitor 25 μM
  SILAC ratio Sec63: 1.5
[6]; competitor 25 μM
  SILAC ratio P4hb: 1.8
[7]; competitor 25 μM
  SILAC ratio Stip1: 1.6
[8]; competitor 25 μM
  SILAC ratio, Hadha: 2.0
[9]; competitor 25 μM
  SILAC ratio, Adpgk: 1.5

## O=C(/C=C/c1cccnc1)NCCCCC1CCN(C(=O)c2ccccc2)CC1 [FK-866, reference compound]
[1]; competitor 25 μM
  SILAC ratio, Tmem165: 1.1
[2]; competitor 25 μM
  SILAC ratio, PSAP (P07602): 1.0
  SILAC ratio Psap: 1.0
[3]; competitor 25 μM
  SILAC ratio Lman2: 1.1
[4]; competitor 25 μM
  SILAC ratio Timm50: 1.1
[5]; competitor 25 μM
  SILAC ratio Sec63: 1.1
[6]; competitor 25 μM
  SILAC ratio P4hb: 1.4
[7]; competitor 25 μM
  SILAC ratio Stip1: 1.3
[8]; competitor 25 μM
  SILAC ratio, Hadha: 6.2
[9]; competitor 25 μM
  SILAC ratio, Adpgk: 1.2
